Legend:
[1] = molar heat capacity at constant pressure; xn = mol fraction of the nth substance listed; settings: 101.3 kPa, Liquid, Small sample (50 mg) DSC
[2] = excess molar enthalpy (molar enthalpy of mixing); xn = mol fraction of the nth substance listed; settings: 101 kPa, Liquid, Calvet calorimetry

CCn1cc[n+](C)c1.O=C([O-])C(F)(F)F [1-ethyl-3-methylimidazolium trifluoroacetate] + O
Settings	excess molar enthalpy [kcal/mol]	molar heat capacity at constant pressure [J/K/mol]
[1], 283.15 K, x2 = 0	–	308
[1], 283.15 K, x2 = 0.2025	–	264
[1], 283.15 K, x2 = 0.3973	–	226
[1], 283.15 K, x2 = 0.5817	–	182
[1], 283.15 K, x2 = 0.7562	–	139
[1], 283.15 K, x2 = 0.842	–	117
[1], 283.15 K, x2 = 0.9256	–	99
[1], 283.15 K, x2 = 0.9668	–	87
[1], 283.15 K, x2 = 0.9912	–	78
[1], 293.15 K, x2 = 0	–	313
[1], 293.15 K, x2 = 0.2025	–	269
[1], 293.15 K, x2 = 0.3973	–	231
[1], 293.15 K, x2 = 0.5817	–	186
[1], 293.15 K, x2 = 0.7562	–	143
[1], 293.15 K, x2 = 0.842	–	120
[1], 293.15 K, x2 = 0.9256	–	100
[1], 293.15 K, x2 = 0.9668	–	90
[1], 293.15 K, x2 = 0.9912	–	80
[1], 303.15 K, x2 = 0	–	320
[1], 303.15 K, x2 = 0.2025	–	274
[1], 303.15 K, x2 = 0.3973	–	238
[1], 303.15 K, x2 = 0.5817	–	191
[1], 303.15 K, x2 = 0.7562	–	147
[1], 303.15 K, x2 = 0.842	–	122
[1], 303.15 K, x2 = 0.9256	–	102
[1], 303.15 K, x2 = 0.9668	–	91
[1], 303.15 K, x2 = 0.9912	–	80
[1], 313.15 K, x2 = 0	–	324
[1], 313.15 K, x2 = 0.2025	–	276
[1], 313.15 K, x2 = 0.3973	–	241
[1], 313.15 K, x2 = 0.5817	–	194
[1], 313.15 K, x2 = 0.7562	–	150
[1], 313.15 K, x2 = 0.842	–	124
[1], 313.15 K, x2 = 0.9256	–	103
[1], 313.15 K, x2 = 0.9668	–	92
[1], 313.15 K, x2 = 0.9912	–	81
[1], 323.15 K, x2 = 0	–	328
[1], 323.15 K, x2 = 0.2025	–	280
[1], 323.15 K, x2 = 0.3973	–	245
[1], 323.15 K, x2 = 0.5817	–	198
[1], 323.15 K, x2 = 0.7562	–	153
[1], 323.15 K, x2 = 0.842	–	126
[1], 323.15 K, x2 = 0.9256	–	104
[1], 323.15 K, x2 = 0.9668	–	92
[1], 323.15 K, x2 = 0.9912	–	81
[1], 333.15 K, x2 = 0	–	332
[1], 333.15 K, x2 = 0.2025	–	285
[1], 333.15 K, x2 = 0.3973	–	251
[1], 333.15 K, x2 = 0.5817	–	201
[1], 333.15 K, x2 = 0.7562	–	155
[1], 333.15 K, x2 = 0.842	–	127
[1], 333.15 K, x2 = 0.9256	–	104
[1], 333.15 K, x2 = 0.9668	–	92
[1], 333.15 K, x2 = 0.9912	–	81
[1], 343.15 K, x2 = 0	–	337
[1], 343.15 K, x2 = 0.2025	–	290
[1], 343.15 K, x2 = 0.3973	–	254
[1], 343.15 K, x2 = 0.5817	–	204
[1], 343.15 K, x2 = 0.7562	–	157
[1], 343.15 K, x2 = 0.842	–	129
[1], 343.15 K, x2 = 0.9256	–	105
[1], 343.15 K, x2 = 0.9668	–	92
[1], 343.15 K, x2 = 0.9912	–	81
[2], 313.04 K, x2 = 0.2499	-0.315	–
[2], 313.04 K, x2 = 0.25	-0.315	–
[2], 313.04 K, x2 = 0.498	-0.511	–
[2], 313.04 K, x2 = 0.4981	-0.511	–
[2], 313.04 K, x2 = 0.7483	-0.49	–
[2], 313.04 K, x2 = 0.7484	-0.49	–
[2], 323.04 K, x2 = 0.2474	-0.312	–
[2], 323.04 K, x2 = 0.2485	-0.313	–
[2], 323.04 K, x2 = 0.4967	-0.501	–
[2], 323.04 K, x2 = 0.4993	-0.502	–
[2], 323.04 K, x2 = 0.7472	-0.469	–
[2], 323.04 K, x2 = 0.7482	-0.468	–
[2], 333.06 K, x2 = 0.2464	-0.311	–
[2], 333.06 K, x2 = 0.2477	-0.312	–
[2], 333.06 K, x2 = 0.4934	-0.492	–
[2], 333.06 K, x2 = 0.4966	-0.494	–
[2], 333.06 K, x2 = 0.7466	-0.449	–
[2], 333.06 K, x2 = 0.7476	-0.448	–
[2], 348.06 K, x2 = 0.2486	-0.312	–
[2], 348.06 K, x2 = 0.2489	-0.311	–
[2], 348.06 K, x2 = 0.4979	-0.478	–
[2], 348.06 K, x2 = 0.4994	-0.478	–
[2], 348.06 K, x2 = 0.748	-0.412	–
[2], 348.06 K, x2 = 0.7484	-0.411	–

Reference: the NIST ThermoML archive (doi:10.1021/je800248w)
